Series [1] concerns the target Toll-like receptor 3 (Homo sapiens) (UniProt O15455). The series can be described thus: Agonist activity at TLR3 (unknown origin) expressed in HEK cells upto 50 uM by luciferase reporter assay. In kind it is cell-based. Background: A reporter such as luciferase makes a cellular process visible.
In series [2] the test system is Mus musculus. The series can be described thus: Increase in IFN-alpha level in BALB/c mouse serum at 0.3 mg/kg, administered intranasally after 6 hrs by ELISA. In kind it is functional, organism-based.
For series [3], the target named is T1, Toll-like receptor 7 (Macaca fascicularis) (UniProt B3Y652).
T1 sequence (whole entry): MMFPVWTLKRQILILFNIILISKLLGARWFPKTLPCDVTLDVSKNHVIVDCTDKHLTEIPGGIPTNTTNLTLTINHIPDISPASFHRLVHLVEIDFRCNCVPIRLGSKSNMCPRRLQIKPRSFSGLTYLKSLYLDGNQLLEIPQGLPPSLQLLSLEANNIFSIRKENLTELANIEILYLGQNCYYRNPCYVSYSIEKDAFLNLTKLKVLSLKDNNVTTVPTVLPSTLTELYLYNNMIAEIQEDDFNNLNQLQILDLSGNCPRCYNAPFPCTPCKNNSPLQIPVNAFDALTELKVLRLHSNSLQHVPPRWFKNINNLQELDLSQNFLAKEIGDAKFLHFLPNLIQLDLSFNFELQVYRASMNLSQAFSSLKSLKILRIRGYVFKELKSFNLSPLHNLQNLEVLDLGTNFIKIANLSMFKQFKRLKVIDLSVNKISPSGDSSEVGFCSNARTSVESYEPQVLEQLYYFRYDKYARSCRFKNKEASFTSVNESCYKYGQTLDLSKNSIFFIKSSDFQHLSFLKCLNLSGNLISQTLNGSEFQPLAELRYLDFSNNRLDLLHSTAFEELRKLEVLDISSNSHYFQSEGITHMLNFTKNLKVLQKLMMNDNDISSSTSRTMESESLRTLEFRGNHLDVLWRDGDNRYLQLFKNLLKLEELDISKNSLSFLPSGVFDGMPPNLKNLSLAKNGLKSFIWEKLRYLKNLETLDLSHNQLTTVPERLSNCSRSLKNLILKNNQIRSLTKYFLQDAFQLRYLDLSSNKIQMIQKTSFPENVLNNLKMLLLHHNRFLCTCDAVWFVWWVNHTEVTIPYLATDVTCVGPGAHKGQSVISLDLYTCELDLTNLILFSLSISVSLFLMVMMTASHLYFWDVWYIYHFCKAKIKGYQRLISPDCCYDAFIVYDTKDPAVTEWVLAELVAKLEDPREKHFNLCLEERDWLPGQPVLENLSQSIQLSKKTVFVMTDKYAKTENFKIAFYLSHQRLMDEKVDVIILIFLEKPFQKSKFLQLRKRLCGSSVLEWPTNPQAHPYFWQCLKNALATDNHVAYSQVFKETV
Kind of series: In vivo target occupancy at TLR7 in cynomolgus monkey assessed as fold increase in CXCL10 mRNA expression in nasal scrape at 30 ng/kg administered intranasally incubated for 24 hrs by TaqMan analysis (reference value: 1.6). In kind it is functional.

The nature of series [4]: Bioavailability in mouse after intranasal administration. It is filed as ADME, organism-based. The conditions noted are these: in vivo, inhaled or intranasal.
A short description of series [5]: Toxicity in monkey assessed as NOAEL after 8 weeks. The conditions noted are these: rhesus monkey, in vivo, 1344 h. The arrangement: species or system Macaca mulatta.
Series [6] in a line: Toxicity in male rat assessed as NOAEL after 14 days. The following applies: in vivo, time 14 day.
A short description of series [7]: Bioavailability in rat after intranasal administration. In kind it is ADME, organism-based. The following applies: in vivo, inhaled or intranasal.
Series [8] has as its system PBMC. The series can be described thus: Immunomodulatory activity in human PBMC assessed as reduction in house dust mite induced IL-5 level after 6 days. In kind it is functional, cell-based. The conditions noted are these: dose 0.01-10000 nM, time 6.0 day.
The test system of series [9] is Mus musculus. The series can be described thus: Increase in IFN-alpha level in intranasally dosed BALB/c mouse nasal lavage after 6 hrs. It is filed as functional, organism-based.
Series [10] addresses T2, Toll-like receptor 7 (Homo sapiens, UniProt Q9NYK1).
T2 sequence (Q9NYK1 whole entry): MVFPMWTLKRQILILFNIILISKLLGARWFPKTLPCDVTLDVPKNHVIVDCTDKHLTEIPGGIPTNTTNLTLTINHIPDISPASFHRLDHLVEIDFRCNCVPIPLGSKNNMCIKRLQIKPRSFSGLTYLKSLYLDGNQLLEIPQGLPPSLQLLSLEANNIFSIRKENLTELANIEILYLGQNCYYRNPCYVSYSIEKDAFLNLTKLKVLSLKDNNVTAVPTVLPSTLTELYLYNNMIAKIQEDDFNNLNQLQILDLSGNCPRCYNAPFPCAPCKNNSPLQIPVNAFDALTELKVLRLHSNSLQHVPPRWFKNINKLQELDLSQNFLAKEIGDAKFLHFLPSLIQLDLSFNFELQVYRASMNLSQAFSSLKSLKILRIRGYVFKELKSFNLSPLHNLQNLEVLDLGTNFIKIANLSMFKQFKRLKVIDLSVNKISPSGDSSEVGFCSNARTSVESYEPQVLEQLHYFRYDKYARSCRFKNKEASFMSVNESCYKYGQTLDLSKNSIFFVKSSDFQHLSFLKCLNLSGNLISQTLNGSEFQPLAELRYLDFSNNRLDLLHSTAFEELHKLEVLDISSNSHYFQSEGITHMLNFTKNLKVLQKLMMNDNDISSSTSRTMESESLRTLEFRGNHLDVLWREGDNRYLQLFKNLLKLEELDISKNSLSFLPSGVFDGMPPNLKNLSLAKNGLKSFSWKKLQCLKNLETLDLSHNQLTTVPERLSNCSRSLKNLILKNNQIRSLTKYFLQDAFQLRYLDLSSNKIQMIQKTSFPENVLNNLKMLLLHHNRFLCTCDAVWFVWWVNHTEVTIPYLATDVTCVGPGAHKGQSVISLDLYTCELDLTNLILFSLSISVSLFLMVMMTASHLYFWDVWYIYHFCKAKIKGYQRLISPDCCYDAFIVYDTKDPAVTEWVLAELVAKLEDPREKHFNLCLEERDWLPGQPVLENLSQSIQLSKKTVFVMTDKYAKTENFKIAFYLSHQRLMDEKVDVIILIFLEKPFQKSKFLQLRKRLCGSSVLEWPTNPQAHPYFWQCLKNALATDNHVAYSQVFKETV
Kind of series: Agonist activity at TLR7 in human whole blood assessed as induction of IL-10 production after 20 hrs by electrochemiluminescence assay. In kind it is tissue-based.

For series [11], the target named is T1, Toll-like receptor 7 (Macaca fascicularis). Kind of series: In vivo target occupancy at TLR7 in cynomolgus monkey assessed as fold increase in CXCL10 mRNA expression in nasal scrape at 3 ng/kg administered intranasally incubated for 24 hrs by TaqMan analysis (reference value: 1.6). In kind it is functional.
Series [12] has as its target T3, Toll-like receptor 7 (Macaca fascicularis, UniProt B3Y652).
T3 sequence (B3Y652 whole entry): T1 sequence (whole entry)
The series can be described thus: Agonist activity at TLR7 in cynomolgus monkey whole blood assessed as induction of IFNalpha production. It is filed as tissue-based.

A short description of series [13]: Toxicity in female rat assessed as NOAEL after 8 weeks. The conditions noted are these: in vivo.
In series [14] the target is T1, Toll-like receptor 7 (Macaca fascicularis). Kind of series: In vivo target occupancy at TLR7 in cynomolgus monkey assessed as fold increase in CCL8 mRNA expression in nasal scrape at 3 ng/kg administered intranasally incubated for 24 hrs by TaqMan analysis (reference value: 1). It is filed as functional. For orientation: In qPCR the cycle at which signal appears reflects the starting amount.

The target in series [15] is T2, Toll-like receptor 7. Kind of series: Agonist activity at TLR7 in human whole blood assessed as induction of IL-1beta production after 20 hrs by electrochemiluminescence assay. In kind it is tissue-based.
Series [16] has as its system PBMC. Kind of series: Immunomodulatory activity in human PBMC assessed as IL-10 production incubated for 6 days in presence of allergen house dust mite. In kind it is functional, cell-based. The conditions noted are these: time 6.0 day.

Calls of active or inactive are those of the source. The rule behind the calls is not given here.

Chain of Toll-like receptor 3 (Homo sapiens) (O15455 whole entry): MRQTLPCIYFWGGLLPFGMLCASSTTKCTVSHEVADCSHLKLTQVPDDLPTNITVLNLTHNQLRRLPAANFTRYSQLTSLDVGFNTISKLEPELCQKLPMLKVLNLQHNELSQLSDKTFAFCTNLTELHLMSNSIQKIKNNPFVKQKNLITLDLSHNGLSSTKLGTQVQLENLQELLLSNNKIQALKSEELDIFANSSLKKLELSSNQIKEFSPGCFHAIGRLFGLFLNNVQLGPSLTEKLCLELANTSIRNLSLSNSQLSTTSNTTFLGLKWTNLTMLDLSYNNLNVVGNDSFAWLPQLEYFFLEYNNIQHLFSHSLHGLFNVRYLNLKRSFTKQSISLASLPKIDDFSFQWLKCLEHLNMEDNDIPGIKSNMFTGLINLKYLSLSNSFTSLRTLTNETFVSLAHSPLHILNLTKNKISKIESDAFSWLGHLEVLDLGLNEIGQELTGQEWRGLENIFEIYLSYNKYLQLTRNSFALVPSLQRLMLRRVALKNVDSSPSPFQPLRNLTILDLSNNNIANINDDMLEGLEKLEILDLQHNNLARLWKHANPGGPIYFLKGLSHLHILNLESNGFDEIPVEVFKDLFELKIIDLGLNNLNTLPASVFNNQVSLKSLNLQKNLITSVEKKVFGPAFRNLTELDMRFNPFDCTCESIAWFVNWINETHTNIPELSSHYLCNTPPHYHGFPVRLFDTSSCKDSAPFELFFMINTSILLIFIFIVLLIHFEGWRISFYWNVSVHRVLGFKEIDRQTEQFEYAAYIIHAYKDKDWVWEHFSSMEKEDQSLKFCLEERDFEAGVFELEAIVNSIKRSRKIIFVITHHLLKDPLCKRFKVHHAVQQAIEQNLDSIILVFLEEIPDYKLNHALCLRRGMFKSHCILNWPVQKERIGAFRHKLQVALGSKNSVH

As usually defined, the bioavailability is the share of a dose that reaches the circulation, judged against a reference dose that is usually intravenous. A word on the NOAEL: it is the highest dose or exposure tested at which no adverse effect was seen. As a reminder, the EC50 is the concentration giving half of the maximal effect. For the compound `CCC[C@H](C)Oc1nc(N)c2[nH]c(=O)n(CCCCCN3CCCCC3)c2n1` [GSK-2245035], the outcome in series [1], in series [2] and in series [9] was inactive. Besides, the fold change (FC) in series [3] worked out at 638; in series [11], 230; in series [14], 3970. The results for the bioavailability in series [4] and in series [7] were 42% and 12%, respectively. In series [5], the no observed adverse effect level (NOAEL) was 0.0359 µg/kg. For the same compound, in series [6], the NOAEL at 336 h was found to be 0.453 mg/kg/day. For the same compound, the Activity entry in series [8] was “Dose-Dependent Effect”. The EC50 in series [10] is 251 nM; in series [12], 79.4 nM; in series [15], 5010 nM. Also, the NOAEL at 1344 h in series [13] was 698 µg/kg. The result in series [16] was Active.

For the origin of these results see ChEMBL document CHEMBL5252515, “Discovery of 6-Amino-2-{[(1S)-1-methylbutyl]oxy}-9-[5-(1-piperidinyl)pentyl]-7,9-dihydro-8H-purin-8-one (GSK2245035), a Highly Potent and Selective Intranasal Toll-Like Receptor 7 Agonist for the Treatment of Asthma” (J Med Chem, 2016).
